Source: patent US9624175B2, “Fused-bicyclic aryl quinolinone derivatives as mutant-isocitrate dehydrogenase inhibitors” (Forma Therapeutics, Inc., priority 2015, dated 2017)

Key:
[1] = target: IDH1-R132H recombinant protein (Homo sapiens (Human), UniProt O75874, R132H); experiment: IDH1-R132H enzymatic assay (NADPH consumption, diaphorase/resazurin readout); assay type: biochemical; settings: inhibition of NADPH consumption, 30 nM IDH1-R132H; read-out: Enzyme IDH1 R132H IC50
Experimental: (§1) Assays were performed in a 384-well black plate. An aliquot of 250 nL of compound was incubated with 10 μL of 30 nM IDH1-R132H or 10 nM IDH1-R132C recombinant protein in assay buffer (50 mM Tris pH=7.5, 150 mM NaCl, 5 mM MgCl2, 0.1% (w/v) Bovine Serum Albumin, and 0.01% Triton X-100) in each well at 25° C. for 15 minutes. After the plate was centrifuged briefly, an aliquot of 10 μL of 2 mM α-ketoglutarate and 20 μM NADPH solution prepared in assay buffer was then added to each well and the reaction was maintained at 25° C. for 45 minutes. An aliquot of 10 μL of diaphorase solution (0.15 U/mL diaphorase and 30 μM Resazurin in assay buffer) was added to each well. The plate was maintained at 25° C. for 15 minutes and then read on a plate reader with excitation and emission wavelengths at 535 nm and 590 nm, respectively. The IC50 of a given compound was calculated by fitting the dose response curve of inhibition of NADPH consumption at a given concentration with the four parameter logistic equation.

[2] = target: IDH1-R132C recombinant protein (Homo sapiens (Human), UniProt O75874, R132C); experiment: IDH1-R132C enzymatic assay (NADPH consumption, diaphorase/resazurin readout); assay type: biochemical; settings: inhibition of NADPH consumption, 10 nM IDH1-R132C; read-out: Enzyme IDH1 R132C IC50
Chain of IDH1-R132C recombinant protein (O75874 whole entry R132C): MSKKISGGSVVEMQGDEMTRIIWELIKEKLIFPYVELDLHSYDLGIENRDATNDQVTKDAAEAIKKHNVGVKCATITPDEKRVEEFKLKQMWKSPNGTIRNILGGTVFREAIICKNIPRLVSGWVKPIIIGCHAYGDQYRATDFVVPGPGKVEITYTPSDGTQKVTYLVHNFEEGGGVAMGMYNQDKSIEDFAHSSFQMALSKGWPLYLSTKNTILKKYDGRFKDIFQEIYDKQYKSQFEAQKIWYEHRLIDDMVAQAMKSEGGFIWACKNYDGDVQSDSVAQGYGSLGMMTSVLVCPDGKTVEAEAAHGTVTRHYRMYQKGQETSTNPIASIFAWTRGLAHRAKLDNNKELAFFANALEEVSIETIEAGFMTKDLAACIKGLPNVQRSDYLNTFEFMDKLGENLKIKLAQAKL
Experimental: as §1

Chain of IDH1-R132H recombinant protein (O75874 whole entry R132H): as the sequence (O75874 whole entry R132C) above, with C132H counted along it

IC50 [1] [µM]	IC50 [2] [µM]	SMILES
0.1 to 1	1 to 10	C[C@H](Nc1ncc2[nH]c(=O)n(C)c2n1)c1cc2cc(Cl)ccc2[nH]c1=O [Compound I-58, 6-chloro-3-[(1S)-1-[(9-methyl-8-oxo-8,9-dihydro-7H-purin-2-yl)amino]ethyl]-1,2-dihydroquinolin-2-one]
< 0.1	< 0.1	COc1cc2[nH]c(=O)c(C(C)Nc3ncc4c(n3)N(C)C(=O)OC4)cc2cc1Cl (racemic) [Compound I-50, 6-chloro-7-methoxy-3-[1-({1-methyl-2-oxo-1H,2H,4H-pyrimido[4,5-d][1,3]oxazin-7-yl}amino)ethyl]-1,2-dihydroquinolin-2-one]
< 0.1	< 0.1	COc1cc2[nH]c(=O)c([C@H](C)Nc3ncc4c(n3)N(C)C(=O)OC4)cc2cc1Cl [Compound I-51, 6-chloro-7-methoxy-3-[(1S)-1-({1-methyl-2-oxo-1H,2H,4H-pyrimido[4,5-d][1,3]oxazin-7-yl}amino)ethyl]-1,2-dihydroquinolin-2-one]
< 0.1	< 0.1	CC(C)CN1C(=O)OCc2cnc(N[C@@H](C)c3cc4cc(Cl)ccc4[nH]c3=O)nc21 [Compound I-46, 6-chloro-3-[(1S)-1-{[1-(2-methylpropyl)-2-oxo-1H,2H,4H-pyrimido[4,5-d][1,3]oxazin-7-yl]amino}ethyl]-1,2-dihydroquinolin-2-one]
0.1 to 1	1 to 10	C[C@H](Nc1ncc2c(n1)NC(=O)C2)c1cc2cc(Cl)ccc2[nH]c1=O [Compound I-60, 6-chloro-3-[(1S)-1-({6-oxo-5H,6H,7H-pyrrolo[2,3-d]pyrimidin-2-yl}amino)ethyl]-1,2-dihydroquinolin-2-one]
0.1 to 1	> 10	O=c1ccc2cc(NCc3cc4cc(Cl)ccc4[nH]c3=O)ccc2o1 [Compound I-4, 6-chloro-3-{[(2-oxo-2H-chromen-6-yl)amino]methyl}-1,2-dihydroquinolin-2-one]
1 to 10	1 to 10	C[C@H](Nc1ncc2[nH]c(=O)[nH]c2n1)c1cc2cc(Cl)ccc2[nH]c1=O [Compound I-59, 6-chloro-3-[(1S)-1-[(8-oxo-8,9-dihydro-7H-purin-2-yl)amino]ethyl]-1,2-dihydroquinolin-2-one]
< 0.1	< 0.1	CC(C)Cn1c(=O)oc2cnc(N[C@@H](C)c3cc4cc(Cl)ccc4[nH]c3=O)nc21 [Compound I-55, 6-chloro-3-[(1S)-1-{[3-(2-methylpropyl)-2-oxo-2H,3H-[1,3]oxazolo[4,5-d]pyrimidin-5-yl]amino}ethyl]-1,2-dihydroquinolin-2-one]
0.1 to 1	1 to 10	CC(=O)N1CCc2c1ccnc2N[C@@H](C)c1cc2cc(Cl)ccc2[nH]c1=O [Compound I-42, 3-[(1S)-1-({1-acetyl-1H,2H,3H-pyrrolo[3,2-c]pyridin-4-yl}amino)ethyl]-6-chloro-1,2-dihydroquinolin-2-one]
< 0.1	0.1 to 1	C[C@H](Nc1ncc2oc(=O)n(C)c2n1)c1cc2cc(Cl)ccc2[nH]c1=O [Compound I-57, 6-chloro-3-[(1S)-1-({3-methyl-2-oxo-2H,3H-[1,3]oxazolo[4,5-d]pyrimidin-5-yl}amino)ethyl]-1,2-dihydroquinolin-2-one]
